Assay results from ChEMBL document CHEMBL5143724, “Small Molecules Promote Selective Denaturation and Degradation of Tubulin Heterodimers through a Low-Barrier Hydrogen Bond” (J Med Chem, 2022).
Calls of active or inactive are those of the source.

Experiments:
[1] = molecular target: T1, Tubulin beta (Homo sapiens) (UniProt P68371+Q9H4B7+Q13509+P04350+Q3ZCM7+P07437+Q13885+Q9BVA1+Q9BUF5+A6NNZ2); assay: Induction of Beta tubulin degradation in human HeLa cells at 0.001 to 100 uM incubated for 16 hrs by immunoblotting analysis; type: cell-based; conditions: dose 0.001-100 µM
HeLa [2] = assay: Antiproliferative activity against human HeLa cells assessed as cell viability at 0.001 to 100 uM incubated for 48 hrs by MTT assay; type: functional, cell-based; conditions: dose 0.001-100 µM
HeLa [3] = assay: Reduction in Beta tubulin mRNA expression in human HeLa cells at 1 uM measured upto 16 hrs by qPCR analysis; type: functional, cell-based
[4] = molecular target: T2, Tubulin alpha (Homo sapiens) (UniProt P0DPH7+P68366+Q71U36+P68363+Q9BQE3+Q6PEY2+A6NHL2+Q9NY65); assay: Induction of Alpha tubulin degradation in human HeLa cells at 1 uM incubated for 16 hrs in presence of maytansine by immunoblot analysis; type: cell-based
HeLa [5] = assay: Reduction in Alpha tubulin mRNA expression in human HeLa cells at 1 uM measured upto 16 hrs by qPCR analysis; type: functional, cell-based
[6] = molecular target: T2, Tubulin alpha (Homo sapiens); assay: Induction of Alpha tubulin degradation in human HCT-116 cells incubated for 24 hrs by immunoblot analysis; type: cell-based; conditions: dose 0.3-30 µM, DDE = dose-dependent effect
[7] = molecular target: T1, Tubulin beta (Homo sapiens); assay: Induction of Beta tubulin degradation in human HCT-116 cells incubated for 24 hrs by immunoblot analysis; type: cell-based; conditions: dose 0.3-30 µM, DDE = dose-dependent effect
Tubulin (Homo sapiens) = Tubulin (Homo sapiens) (UniProt P68371+Q9H4B7+P0DPH7+P68366+Q13509+Q71U36+P04350+Q3ZCM7+P07437+P68363+Q9BQE3+Q6PEY2+Q13885+Q9BVA1+Q9BUF5); assay: Induction of tubulin denaturation (unknown origin) pre incubated for 2 to 8 hrs with compound followed by GH addition measured after 30 mins by spectrophotometer based microplate reader method; type: protein-complex assay; conditions: time 2.5-8.5 hrs
[8] = molecular target: T1, Tubulin beta (Homo sapiens); assay: Induction of Beta tubulin degradation in human HeLa cells incubated for 24 hrs by immunoblot analysis; type: cell-based; conditions: DDE = dose-dependent effect
Tubulin (Sus scrofa) = Tubulin (Sus scrofa) (UniProt P02554+P02550); assay: Induction of porcine tubulin aggregation assessed as formation of spherical sized tubulin aggregates at 20 uM incubated for 4 hrs by TEM analysis; type: protein assay
[9] = molecular target: T1, Tubulin beta (Homo sapiens); assay: Induction of Beta tubulin degradation in human HeLa cells at 1 uM incubated for 16 hrs in presence of pironetin by immunoblot analysis; type: cell-based
[10] = molecular target: T2, Tubulin alpha (Homo sapiens); assay: Induction of Alpha tubulin degradation in human HeLa cells incubated for 24 hrs by immunoblot analysis; type: cell-based; conditions: DDE = dose-dependent effect

Measured: Activity

Sequence of Tubulin (Sus scrofa) (P02550 whole entry, looked up): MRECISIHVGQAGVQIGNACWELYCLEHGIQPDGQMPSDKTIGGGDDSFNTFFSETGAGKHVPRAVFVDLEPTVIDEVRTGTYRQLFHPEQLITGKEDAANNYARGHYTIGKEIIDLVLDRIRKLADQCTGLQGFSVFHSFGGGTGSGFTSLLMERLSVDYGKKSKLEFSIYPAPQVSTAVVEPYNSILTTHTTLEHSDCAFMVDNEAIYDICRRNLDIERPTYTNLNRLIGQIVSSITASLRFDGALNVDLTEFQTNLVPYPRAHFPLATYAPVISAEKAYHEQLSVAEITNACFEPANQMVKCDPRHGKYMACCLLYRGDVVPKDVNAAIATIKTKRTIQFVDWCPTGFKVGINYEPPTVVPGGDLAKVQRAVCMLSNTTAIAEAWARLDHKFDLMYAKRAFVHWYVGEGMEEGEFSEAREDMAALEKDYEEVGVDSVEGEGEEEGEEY
Sequence of Tubulin (Sus scrofa) (P02554 whole entry, looked up): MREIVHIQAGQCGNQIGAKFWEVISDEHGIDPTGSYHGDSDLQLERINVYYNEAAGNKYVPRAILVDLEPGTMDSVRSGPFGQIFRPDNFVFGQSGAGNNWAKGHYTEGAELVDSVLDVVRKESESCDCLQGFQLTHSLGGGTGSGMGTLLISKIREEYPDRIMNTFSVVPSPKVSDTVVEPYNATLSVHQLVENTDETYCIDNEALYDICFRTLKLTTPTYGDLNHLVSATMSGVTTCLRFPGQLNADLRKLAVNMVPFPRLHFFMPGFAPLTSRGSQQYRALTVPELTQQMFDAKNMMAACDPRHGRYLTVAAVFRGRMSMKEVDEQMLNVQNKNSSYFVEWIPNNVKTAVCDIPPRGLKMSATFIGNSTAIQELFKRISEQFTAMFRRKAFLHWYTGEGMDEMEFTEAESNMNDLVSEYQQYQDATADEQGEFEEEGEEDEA

c1ccc(CNc2cc3c(cn2)[nH]c2ccccc23)cc1
active: [1] | HeLa [2]

COc1cccc(-c2cc(NCc3ccc4c(c3)OCO4)nc(N)n2)c1
active: HeLa [3] | [4] | HeLa [5] | [6] Dde | [7] Dde | Tubulin (Homo sapiens) | [8] Dde | Tubulin (Sus scrofa) | [9] | [10] Dde
